# PubChem BioAssay AID260 (DTP/NCI, 2004)
# “And” between values parts separate entries of the source, which are not always exact repeats. Equal values may be shown once. Inconclusive results and toxic doses are left out.
# Tested on: CD2F1 mice, intracerebral L1210 leukemia, survival T/C
# Assay: NCI In Vivo Anticancer Drug Screen. Data for tumor model L1210 Leukemia (intracerebral) in CD2F1 (CDF1) mice
# Conditions: higher = longer survival
# Experimental: The antitumor activity of compounds was measured in mice bearing transplantable tumors. Survival or tumor size were measured and the results are expressed as the measurement made in the treated group (T) divided by the measurement made in the vehicle treated control group (C). The tumor model used in this assay is L1210 Leukemia (intracerebral) in CD2F1 (CDF1) mice
# [1] = endpoint: median survival time, dose: 8.0 mg/kg/injection, schedule: Q01DX005 (ip), vehicle: saline + alcohol
# [2] = endpoint: median survival time, dose: 16.0 mg/kg/injection, schedule: Q01DX005 (ip), vehicle: saline + alcohol
# [3] = endpoint: median survival time, dose: 32.0 mg/kg/injection, schedule: Q01DX005 (ip), vehicle: saline + alcohol
# [4] = endpoint: median survival time, dose: 64.0 mg/kg/injection, schedule: Q01DX005 (ip), vehicle: saline + alcohol
# [5] = endpoint: median survival time, dose: 128.0 mg/kg/injection, schedule: Q01DX005 (ip), vehicle: saline + alcohol
# [6] = endpoint: median survival time, dose: 25.0 mg/kg/injection, schedule: Q01DX009 (ip), vehicle: saline with Tween-80
# [7] = endpoint: median survival time, dose: 40.0 mg/kg/injection, schedule: Q01DX001 (ip), vehicle: saline
# [8] = endpoint: median survival time, dose: 80.0 mg/kg/injection, schedule: Q01DX001 (ip), vehicle: saline
structure (smiles),measurement,setting,value
CN(C)N=Nc1ccccc1Cl,T/C,[1],98 % of control
same,T/C,[2],106 % of control
same,T/C,[3],102 % of control
same,T/C,[4],102 % of control
same,T/C,[5],105 % of control
CCCCCCCCCCCCCCCCCC(=O)Nc1ccn(C2OC(CO)C(O)C2O)c(=O)n1 (centres undefined),T/C,[6],188 % of control
same,T/C,"endpoint: median survival time, dose: 100.0 mg/kg/injection, schedule: Q01DX009 (ip), vehicle: saline with Tween-80",121 % of control
CCCCCN(C)/N=N/c1nc[nH]c1C(N)=O,T/C,"endpoint: median survival time, dose: 16.0 mg/kg/injection, schedule: Q01DX005 (ip), vehicle: saline with Tween-80",112 % of control
same,T/C,"endpoint: median survival time, dose: 32.0 mg/kg/injection, schedule: Q01DX005 (ip), vehicle: saline with Tween-80",122 % of control
same,T/C,"endpoint: median survival time, dose: 256.0 mg/kg/injection, schedule: Q01DX005 (ip), vehicle: saline with Tween-80",92 % of control
COc1ccc2c(c1)CCC(c1ccccc1)=C2c1ccc(OCCN2CCCC2)cc1,T/C,"endpoint: median survival time, dose: 12.0 mg/kg/injection, schedule: Q01DX005 (ip), vehicle: Klucel (hydroxypropylcellulose) (HPC)",98 % of control and 101 % of control
same,T/C,"endpoint: median survival time, dose: 24.0 mg/kg/injection, schedule: Q01DX005 (ip), vehicle: Klucel (hydroxypropylcellulose) (HPC)",106 % of control
same,T/C,"endpoint: median survival time, dose: 48.0 mg/kg/injection, schedule: Q01DX005 (ip), vehicle: Klucel (hydroxypropylcellulose) (HPC)",108 % of control
same,T/C,"endpoint: median survival time, dose: 96.0 mg/kg/injection, schedule: Q01DX005 (ip), vehicle: Klucel (hydroxypropylcellulose) (HPC)",106 % of control
N[C@H](C(=O)O)[C@H]1ON=C(Cl)[C@@H]1O,T/C,"endpoint: mean survival time, dose: 256.0 mg/kg/injection, schedule: Q01DX009 (ip), vehicle: saline",118 % of control
same,T/C,"endpoint: mean survival time, dose: 512.0 mg/kg/injection, schedule: Q01DX009 (ip), vehicle: saline",98 % of control
same,T/C,"endpoint: mean survival time, dose: 1024.0 mg/kg/injection, schedule: Q01DX009 (ip), vehicle: saline",98 % of control
CC(=O)OC1(C)CC(C)C(=O)C(C(O)CC2CC(=O)NC(=O)C2)C1 (centres undefined),T/C,"endpoint: mean survival time, dose: 0.04 mg/kg/injection, schedule: Q01DX009 (ip), vehicle: saline",101 % of control
same,T/C,"endpoint: mean survival time, dose: 0.06 mg/kg/injection, schedule: Q01DX009 (ip), vehicle: saline",101 % of control
same,T/C,"endpoint: mean survival time, dose: 0.13 mg/kg/injection, schedule: Q01DX009 (ip), vehicle: saline",108 % of control
same,T/C,"endpoint: mean survival time, dose: 0.25 mg/kg/injection, schedule: Q01DX009 (ip), vehicle: saline",111 % of control
same,T/C,"endpoint: mean survival time, dose: 0.5 mg/kg/injection, schedule: Q01DX009 (ip), vehicle: saline",105 % of control
CN(C)c1nc(N(C)C)nc(N(C)C)n1,T/C,"endpoint: median survival time, dose: 100.0 mg/kg/injection, schedule: Q01DX005 (ip), vehicle: saline with Tween-80",121 % of control
same,T/C,"endpoint: median survival time, dose: 100.0 mg/kg/injection, schedule: Q01DX005 (ip), vehicle: suspension in saline",102 % of control
same,T/C,"endpoint: median survival time, dose: 200.0 mg/kg/injection, schedule: Q01DX005 (ip), vehicle: saline with Tween-80",101 % of control
same,T/C,"endpoint: median survival time, dose: 200.0 mg/kg/injection, schedule: Q01DX005 (ip), vehicle: suspension in saline",101 % of control
same,T/C,"endpoint: median survival time, dose: 400.0 mg/kg/injection, schedule: Q01DX005 (ip), vehicle: suspension in saline",100 % of control
same,T/C,"endpoint: median survival time, dose: 800.0 mg/kg/injection, schedule: Q01DX005 (ip), vehicle: suspension in saline",118 % of control
O=C(Nc1ccccc1)c1c(O)[nH]c(=S)[nH]c1=O,T/C,"endpoint: median survival time, dose: 12.5 mg/kg/injection, schedule: Q01DX009 (ip), vehicle: saline with Tween-80",94 % of control
same,T/C,[6],98 % of control
same,T/C,"endpoint: median survival time, dose: 50.0 mg/kg/injection, schedule: Q01DX009 (ip), vehicle: saline with Tween-80",113 % of control
CS(=O)(=O)CS(=O)(=O)OCCCl,T/C,"endpoint: median survival time, dose: 6.25 mg/kg/injection, schedule: Q01DX009 (ip), vehicle: saline",104 % of control
same,T/C,"endpoint: median survival time, dose: 12.5 mg/kg/injection, schedule: Q01DX009 (ip), vehicle: saline",112 % of control
same,T/C,"endpoint: median survival time, dose: 50.0 mg/kg/injection, schedule: Q01DX009 (ip), vehicle: saline",209 % of control
CN(C)N=Nc1cccc(C(N)=O)c1,T/C,"endpoint: median survival time, dose: 10.0 mg/kg/injection, schedule: Q01DX005 (ip), vehicle: Klucel (hydroxypropylcellulose) (HPC)",104 % of control and 112 % of control
same,T/C,"endpoint: median survival time, dose: 20.0 mg/kg/injection, schedule: Q01DX005 (ip), vehicle: Klucel (hydroxypropylcellulose) (HPC)",120 % of control and 115 % of control
same,T/C,"endpoint: median survival time, dose: 80.0 mg/kg/injection, schedule: Q01DX005 (ip), vehicle: Klucel (hydroxypropylcellulose) (HPC)",102 % of control and 110 % of control
CN(N=O)C(N)=O,T/C,"endpoint: median survival time, dose: 0.5 mg/kg/injection, schedule: Q01DX009 (ip), vehicle: saline + alcohol",98 % of control
same,T/C,"endpoint: median survival time, dose: 1.0 mg/kg/injection, schedule: Q01DX009 (ip), vehicle: saline + alcohol",105 % of control
same,T/C,"endpoint: median survival time, dose: 2.0 mg/kg/injection, schedule: Q01DX009 (ip), vehicle: saline + alcohol",105 % of control
same,T/C,"endpoint: median survival time, dose: 2.5 mg/kg/injection, schedule: Q01DX001 (ip), vehicle: saline",89 % of control
same,T/C,"endpoint: median survival time, dose: 4.0 mg/kg/injection, schedule: Q01DX009 (ip), vehicle: saline + alcohol",114 % of control
same,T/C,"endpoint: median survival time, dose: 5.0 mg/kg/injection, schedule: Q01DX001 (ip), vehicle: saline",92 % of control
same,T/C,"endpoint: median survival time, dose: 10.0 mg/kg/injection, schedule: Q01DX001 (ip), vehicle: saline + alcohol",102 % of control
same,T/C,"endpoint: median survival time, dose: 10.0 mg/kg/injection, schedule: Q01DX001 (ip), vehicle: saline",94 % of control
same,T/C,"endpoint: median survival time, dose: 16.0 mg/kg/injection, schedule: Q01DX009 (ip), vehicle: saline + alcohol",196 % of control
same,T/C,"endpoint: median survival time, dose: 20.0 mg/kg/injection, schedule: Q01DX001 (ip), vehicle: saline + alcohol",105 % of control
same,T/C,"endpoint: median survival time, dose: 20.0 mg/kg/injection, schedule: Q01DX001 (ip), vehicle: saline",103 % of control
same,T/C,"endpoint: median survival time, dose: 40.0 mg/kg/injection, schedule: Q01DX001 (ip), vehicle: saline + alcohol",107 % of control
same,T/C,[7],121 % of control
same,T/C,"endpoint: median survival time, dose: 80.0 mg/kg/injection, schedule: Q01DX001 (ip), vehicle: saline + alcohol",112 % of control
same,T/C,[8],110 % of control
COC(=O)c1ccc(N=NN(C)C)cc1,T/C,[1],104 % of control
same,T/C,[2],106 % of control
same,T/C,[3],113 % of control
same,T/C,[4],120 % of control
same,T/C,[5],112 % of control
C[C@]12CCC(=O)C=C1CC[C@@H]1[C@@H]2[C@@H](O)C[C@@]2(C)[C@H]1CC[C@]2(O)C(=O)COP(=O)(O)OCC1OC(n2ccc(N)nc2=O)C(O)C1O (some centres undefined),T/C,"endpoint: median survival time, dose: 18.75 mg/kg/injection, schedule: Q01DX005 (ip), vehicle: other",116 % of control
same,T/C,"endpoint: median survival time, dose: 150.0 mg/kg/injection, schedule: Q01DX005 (ip), vehicle: other",160 % of control
same,T/C,"endpoint: median survival time, dose: 300.0 mg/kg/injection, schedule: Q01DX005 (ip), vehicle: other",169 % of control
COC(=O)NC1=C(N2CC2)C(=O)C(NC(=O)OC)=C(N2CC2)C1=O,T/C,"endpoint: median survival time, dose: 0.37 mg/kg/injection, schedule: Q01DX009 (ip), vehicle: saline",112 % of control and 117 % of control
same,T/C,"endpoint: median survival time, dose: 0.75 mg/kg/injection, schedule: Q01DX009 (ip), vehicle: saline",120 % of control and 122 % of control
O=P1(N(CCCl)CCCl)NC(OO)CCO1 (centres undefined),T/C,[7],100 % of control
same,T/C,[8],102 % of control
same,T/C,"endpoint: median survival time, dose: 160.0 mg/kg/injection, schedule: Q01DX001 (ip), vehicle: saline",103 % of control
CC(C)(CO)COC(=O)NC1=C(N2CC2)C(=O)C(NC(=O)OCC(C)(C)CO)=C(N2CC2)C1=O,T/C,"endpoint: median survival time, dose: 0.75 mg/kg/injection, schedule: Q01DX009 (ip), vehicle: water",102 % of control and 105 % of control
same,T/C,"endpoint: median survival time, dose: 1.5 mg/kg/injection, schedule: Q01DX009 (ip), vehicle: water",103 % of control and 108 % of control
same,T/C,"endpoint: median survival time, dose: 3.0 mg/kg/injection, schedule: Q01DX009 (ip), vehicle: water",105 % of control and 110 % of control
same,T/C,"endpoint: median survival time, dose: 6.0 mg/kg/injection, schedule: Q01DX009 (ip), vehicle: water",110 % of control and 113 % of control
same,T/C,"endpoint: median survival time, dose: 12.0 mg/kg/injection, schedule: Q01DX009 (ip), vehicle: water",119 % of control and 113 % of control
NC(=S)N/N=C/c1ccc(O)cn1,T/C,"endpoint: median survival time, dose: 12.0 mg/kg/injection, schedule: Q01DX005 (ip), vehicle: saline",95 % of control and 105 % of control
same,T/C,"endpoint: median survival time, dose: 24.0 mg/kg/injection, schedule: Q01DX005 (ip), vehicle: saline",107 % of control and 115 % of control
same,T/C,"endpoint: median survival time, dose: 48.0 mg/kg/injection, schedule: Q01DX005 (ip), vehicle: saline",113 % of control and 117 % of control
same,T/C,"endpoint: median survival time, dose: 96.0 mg/kg/injection, schedule: Q01DX005 (ip), vehicle: saline",121 % of control
CC(=O)c1ccc(N=NN(C)C)cc1,T/C,"endpoint: mean survival time, dose: 5.0 mg/kg/injection, schedule: Q01DX007 (ip), vehicle: other",107 % of control
same,T/C,"endpoint: mean survival time, dose: 10.0 mg/kg/injection, schedule: Q01DX007 (ip), vehicle: other",89 % of control
same,T/C,"endpoint: mean survival time, dose: 20.0 mg/kg/injection, schedule: Q01DX007 (ip), vehicle: other",97 % of control
same,T/C,"endpoint: mean survival time, dose: 40.0 mg/kg/injection, schedule: Q01DX007 (ip), vehicle: other",103 % of control
same,T/C,"endpoint: mean survival time, dose: 60.0 mg/kg/injection, schedule: Q01DX007 (ip), vehicle: other",93 % of control
